ChEMBL document CHEMBL5465560, “Selectivity Literature for EUbOPEN Chemogenomic Library” (2024)
Non-standard residues stand in square brackets, D forms with d. Residues, ends and D or L forms follow the SMILES beside them. Arg(Me) = CNC(=N)NCCC[C@H](N)C(=O)O; d3Pal = N[C@H](Cc1cccnc1)C(=O)O; azaGly = NNC(=O)O

Tests used:
[1] = molecular target: Serine/threonine-protein kinase PAK 2 (Homo sapiens) (UniProt Q13177); test: Selectivity interaction (33PanQinase Assay (Reaction Biology)) EUB0001107a PAK2
Serine/threonine-protein kinase PAK 2 (Homo sapiens), sequence (Q13177 whole entry): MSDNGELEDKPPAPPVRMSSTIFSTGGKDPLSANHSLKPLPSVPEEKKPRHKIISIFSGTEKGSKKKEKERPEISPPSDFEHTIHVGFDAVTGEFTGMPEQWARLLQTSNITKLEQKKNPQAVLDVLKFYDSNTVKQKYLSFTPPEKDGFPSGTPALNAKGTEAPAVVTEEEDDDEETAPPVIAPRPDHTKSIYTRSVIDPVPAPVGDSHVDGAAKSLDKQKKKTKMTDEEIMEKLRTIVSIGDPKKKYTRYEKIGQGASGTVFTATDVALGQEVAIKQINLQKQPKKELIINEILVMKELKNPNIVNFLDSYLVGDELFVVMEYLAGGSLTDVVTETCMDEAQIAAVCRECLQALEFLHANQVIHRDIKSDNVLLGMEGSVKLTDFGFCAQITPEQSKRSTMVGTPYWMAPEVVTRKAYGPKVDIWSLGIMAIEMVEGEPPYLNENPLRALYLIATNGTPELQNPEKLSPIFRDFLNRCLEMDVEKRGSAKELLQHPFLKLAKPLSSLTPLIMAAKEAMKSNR

[2] = molecular target: Serine/threonine-protein kinase PAK 3 (Homo sapiens) (UniProt O75914); test: Selectivity interaction (33PanQinase Assay (Reaction Biology)) EUB0001107a PAK3
[3] = molecular target: Mitogen-activated protein kinase kinase kinase kinase 5 (Homo sapiens) (UniProt Q9Y4K4); test: Selectivity interaction (33PanQinase Assay (Reaction Biology)) EUB0001107a MAP4K5
Mitogen-activated protein kinase kinase kinase kinase 5 (Homo sapiens), sequence (Q9Y4K4 whole entry, looked up): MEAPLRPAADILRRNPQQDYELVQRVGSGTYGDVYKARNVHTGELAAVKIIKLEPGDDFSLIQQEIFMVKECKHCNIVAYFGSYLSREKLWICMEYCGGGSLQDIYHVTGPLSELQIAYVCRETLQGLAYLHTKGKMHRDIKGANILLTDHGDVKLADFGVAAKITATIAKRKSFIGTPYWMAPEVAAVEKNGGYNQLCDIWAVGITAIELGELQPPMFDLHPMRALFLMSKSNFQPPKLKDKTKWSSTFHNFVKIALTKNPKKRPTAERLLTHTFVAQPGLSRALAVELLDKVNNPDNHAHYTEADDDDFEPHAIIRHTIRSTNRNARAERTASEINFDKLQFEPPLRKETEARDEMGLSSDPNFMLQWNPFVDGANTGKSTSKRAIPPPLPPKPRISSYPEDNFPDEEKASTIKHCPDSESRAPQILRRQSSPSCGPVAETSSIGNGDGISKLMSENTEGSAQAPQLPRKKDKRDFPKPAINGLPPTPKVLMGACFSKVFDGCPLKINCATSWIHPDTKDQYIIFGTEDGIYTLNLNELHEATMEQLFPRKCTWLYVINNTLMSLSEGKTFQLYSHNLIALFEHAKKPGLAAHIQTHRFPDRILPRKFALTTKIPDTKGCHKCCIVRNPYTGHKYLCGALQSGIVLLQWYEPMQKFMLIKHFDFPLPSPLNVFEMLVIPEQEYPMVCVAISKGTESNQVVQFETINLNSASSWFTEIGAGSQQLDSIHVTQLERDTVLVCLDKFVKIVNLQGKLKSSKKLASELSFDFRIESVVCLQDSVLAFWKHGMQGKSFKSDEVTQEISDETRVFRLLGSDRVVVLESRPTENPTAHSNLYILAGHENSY

[4] = molecular target: Serine/threonine-protein kinase 38-like (Homo sapiens) (UniProt Q9Y2H1); test: Selectivity interaction (KinomeScan (DiscoverX)) EUB0001068a STK38L; settings: at 1 µM
Serine/threonine-protein kinase 38-like (Homo sapiens), sequence (Q9Y2H1 2-464 limits assumed): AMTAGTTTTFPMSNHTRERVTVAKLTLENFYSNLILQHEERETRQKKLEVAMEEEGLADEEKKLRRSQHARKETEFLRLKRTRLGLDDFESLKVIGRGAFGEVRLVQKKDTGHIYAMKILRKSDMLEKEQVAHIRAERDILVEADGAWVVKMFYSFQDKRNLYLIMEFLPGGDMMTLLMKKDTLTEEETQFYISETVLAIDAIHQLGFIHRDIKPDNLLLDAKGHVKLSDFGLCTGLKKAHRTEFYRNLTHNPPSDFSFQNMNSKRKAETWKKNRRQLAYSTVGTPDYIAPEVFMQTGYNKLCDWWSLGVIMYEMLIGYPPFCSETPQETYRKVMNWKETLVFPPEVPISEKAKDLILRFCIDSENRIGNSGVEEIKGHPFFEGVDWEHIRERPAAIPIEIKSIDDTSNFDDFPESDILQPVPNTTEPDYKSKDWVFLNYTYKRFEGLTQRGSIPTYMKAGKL

[5] = molecular target: T1, Serine/threonine-protein kinase Nek1 (Homo sapiens) (UniProt Q96PY6); test: Selectivity interaction (KinomeScan (DiscoverX)) EUB0001068a NEK1; settings: at 1 µM
T1 sequence (whole entry): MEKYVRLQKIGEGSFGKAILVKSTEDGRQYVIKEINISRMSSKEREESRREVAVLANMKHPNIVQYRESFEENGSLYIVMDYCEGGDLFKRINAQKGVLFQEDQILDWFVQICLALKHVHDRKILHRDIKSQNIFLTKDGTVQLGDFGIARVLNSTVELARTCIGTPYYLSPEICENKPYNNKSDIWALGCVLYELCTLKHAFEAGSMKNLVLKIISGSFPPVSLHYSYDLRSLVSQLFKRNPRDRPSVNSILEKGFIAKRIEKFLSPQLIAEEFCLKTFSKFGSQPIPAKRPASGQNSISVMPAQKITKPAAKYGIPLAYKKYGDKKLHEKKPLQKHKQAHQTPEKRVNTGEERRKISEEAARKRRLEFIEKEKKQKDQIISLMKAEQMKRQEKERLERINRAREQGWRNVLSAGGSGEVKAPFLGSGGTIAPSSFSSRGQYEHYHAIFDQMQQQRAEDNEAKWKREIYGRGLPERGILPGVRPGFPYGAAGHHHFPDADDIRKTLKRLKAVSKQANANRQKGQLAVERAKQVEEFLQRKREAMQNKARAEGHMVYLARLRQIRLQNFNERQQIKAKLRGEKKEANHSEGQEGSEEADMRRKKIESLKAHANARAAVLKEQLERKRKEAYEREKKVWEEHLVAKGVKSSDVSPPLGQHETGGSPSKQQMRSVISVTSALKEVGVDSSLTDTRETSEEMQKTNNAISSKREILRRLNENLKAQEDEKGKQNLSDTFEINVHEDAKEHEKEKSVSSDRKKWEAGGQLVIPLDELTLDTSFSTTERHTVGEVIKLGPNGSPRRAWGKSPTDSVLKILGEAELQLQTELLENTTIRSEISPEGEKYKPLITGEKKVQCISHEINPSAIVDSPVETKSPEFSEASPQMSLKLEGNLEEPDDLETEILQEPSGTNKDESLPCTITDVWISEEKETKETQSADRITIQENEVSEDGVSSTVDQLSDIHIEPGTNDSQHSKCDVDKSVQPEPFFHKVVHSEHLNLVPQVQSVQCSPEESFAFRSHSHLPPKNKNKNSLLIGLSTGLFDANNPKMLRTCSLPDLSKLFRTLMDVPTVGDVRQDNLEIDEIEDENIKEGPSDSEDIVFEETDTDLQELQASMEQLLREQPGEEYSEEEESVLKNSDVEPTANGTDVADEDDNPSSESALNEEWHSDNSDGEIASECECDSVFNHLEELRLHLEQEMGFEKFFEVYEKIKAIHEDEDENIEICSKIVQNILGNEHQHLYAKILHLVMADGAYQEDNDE

[6] = molecular target: T2, Cytoplasmic tyrosine-protein kinase BMX (Homo sapiens) (UniProt P51813); test: Selectivity interaction (KinomeScan (DiscoverX)) EUB0001068a BMX; settings: at 1 µM
T2 sequence (whole entry): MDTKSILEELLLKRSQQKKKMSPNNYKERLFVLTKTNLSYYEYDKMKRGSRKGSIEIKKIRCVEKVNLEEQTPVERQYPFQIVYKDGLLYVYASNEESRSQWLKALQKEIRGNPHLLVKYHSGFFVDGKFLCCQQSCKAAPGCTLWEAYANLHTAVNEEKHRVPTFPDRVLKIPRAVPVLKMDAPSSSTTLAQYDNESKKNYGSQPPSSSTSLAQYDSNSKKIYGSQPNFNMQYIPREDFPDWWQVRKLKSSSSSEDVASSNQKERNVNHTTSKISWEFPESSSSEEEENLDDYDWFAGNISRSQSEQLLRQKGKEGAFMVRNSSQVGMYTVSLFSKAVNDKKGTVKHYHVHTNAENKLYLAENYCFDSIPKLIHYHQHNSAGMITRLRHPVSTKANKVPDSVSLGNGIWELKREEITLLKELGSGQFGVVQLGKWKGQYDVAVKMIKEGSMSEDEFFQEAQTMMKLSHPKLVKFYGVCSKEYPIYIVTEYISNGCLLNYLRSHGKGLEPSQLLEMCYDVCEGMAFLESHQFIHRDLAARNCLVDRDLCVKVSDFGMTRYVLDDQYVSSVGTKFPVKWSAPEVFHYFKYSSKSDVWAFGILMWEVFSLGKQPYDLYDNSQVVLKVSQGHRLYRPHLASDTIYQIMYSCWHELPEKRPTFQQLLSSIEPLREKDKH

[7] = molecular target: T3, Muscarinic acetylcholine receptor M2 (Homo sapiens) (UniProt P08172); test: Selectivity interaction (GPCR panel (PDSP screen)) EUB0001072a CHRM2; settings: at 10 µM
T3 sequence (whole entry): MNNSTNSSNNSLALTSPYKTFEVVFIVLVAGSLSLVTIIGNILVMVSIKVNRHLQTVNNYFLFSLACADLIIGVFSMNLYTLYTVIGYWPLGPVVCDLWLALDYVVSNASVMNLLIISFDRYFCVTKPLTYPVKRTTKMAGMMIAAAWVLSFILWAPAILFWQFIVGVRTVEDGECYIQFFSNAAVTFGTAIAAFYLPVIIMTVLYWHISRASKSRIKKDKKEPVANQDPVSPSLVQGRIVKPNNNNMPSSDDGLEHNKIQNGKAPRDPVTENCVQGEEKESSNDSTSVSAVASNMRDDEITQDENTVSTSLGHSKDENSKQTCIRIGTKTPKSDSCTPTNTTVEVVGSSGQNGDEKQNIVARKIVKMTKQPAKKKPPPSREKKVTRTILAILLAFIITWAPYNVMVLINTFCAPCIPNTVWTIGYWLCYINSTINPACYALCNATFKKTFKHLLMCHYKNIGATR

[8] = molecular target: Alpha-2B adrenergic receptor (Homo sapiens) (UniProt P18089); test: Selectivity interaction (GPCR panel (PDSP screen)) EUB0001072a ADRA2B; settings: at 10 µM
Alpha-2B adrenergic receptor (Homo sapiens), sequence (P18089 whole entry): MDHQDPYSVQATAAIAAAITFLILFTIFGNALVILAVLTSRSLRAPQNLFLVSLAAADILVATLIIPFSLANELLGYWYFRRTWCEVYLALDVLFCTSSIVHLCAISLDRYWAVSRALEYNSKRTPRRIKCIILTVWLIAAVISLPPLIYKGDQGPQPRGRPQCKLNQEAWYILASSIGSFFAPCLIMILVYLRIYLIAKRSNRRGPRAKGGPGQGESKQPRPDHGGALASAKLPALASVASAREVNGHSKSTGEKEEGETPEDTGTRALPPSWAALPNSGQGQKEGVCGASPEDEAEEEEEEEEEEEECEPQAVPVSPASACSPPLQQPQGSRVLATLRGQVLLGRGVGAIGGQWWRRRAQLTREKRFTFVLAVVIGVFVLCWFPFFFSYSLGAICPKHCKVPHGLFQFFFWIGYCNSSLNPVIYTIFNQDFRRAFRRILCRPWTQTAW

[9] = molecular target: 4-aminobutyrate aminotransferase, mitochondrial (Homo sapiens, UniProt P80404); test: Selectivity interaction (GPCR panel (PDSP screen)) EUB0001072a ABAT; settings: at 10 µM
4-aminobutyrate aminotransferase, mitochondrial, sequence (P80404 whole entry): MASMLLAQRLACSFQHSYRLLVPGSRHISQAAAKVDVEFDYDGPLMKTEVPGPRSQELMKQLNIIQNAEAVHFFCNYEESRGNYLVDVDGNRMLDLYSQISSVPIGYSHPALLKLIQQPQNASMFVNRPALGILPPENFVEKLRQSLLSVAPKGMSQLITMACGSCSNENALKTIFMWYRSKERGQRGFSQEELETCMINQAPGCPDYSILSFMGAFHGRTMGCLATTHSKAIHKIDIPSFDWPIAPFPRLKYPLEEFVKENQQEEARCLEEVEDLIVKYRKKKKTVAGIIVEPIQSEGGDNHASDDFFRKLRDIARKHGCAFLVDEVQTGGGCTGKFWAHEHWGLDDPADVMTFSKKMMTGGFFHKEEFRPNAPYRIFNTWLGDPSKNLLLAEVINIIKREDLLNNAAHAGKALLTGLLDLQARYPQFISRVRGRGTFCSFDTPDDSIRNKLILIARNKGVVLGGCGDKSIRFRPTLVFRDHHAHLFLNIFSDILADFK

[10] = molecular target: T4, 5-hydroxytryptamine receptor 1A (Homo sapiens) (UniProt P08908); test: Selectivity interaction (GPCR panel (PDSP screen)) EUB0001072a HTR1A; settings: at 10 µM
T4 sequence (whole entry): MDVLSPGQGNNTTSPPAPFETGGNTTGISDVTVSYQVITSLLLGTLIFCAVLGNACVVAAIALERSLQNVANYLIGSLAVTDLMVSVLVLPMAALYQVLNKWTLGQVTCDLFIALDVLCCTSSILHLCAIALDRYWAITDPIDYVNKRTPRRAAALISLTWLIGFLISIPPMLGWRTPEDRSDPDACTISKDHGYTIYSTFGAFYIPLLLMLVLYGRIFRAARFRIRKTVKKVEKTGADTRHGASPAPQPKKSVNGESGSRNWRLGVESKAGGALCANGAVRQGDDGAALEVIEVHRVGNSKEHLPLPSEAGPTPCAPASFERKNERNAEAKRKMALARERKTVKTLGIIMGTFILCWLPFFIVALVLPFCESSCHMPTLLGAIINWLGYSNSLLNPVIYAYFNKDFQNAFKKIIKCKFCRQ

[11] = molecular target: T5, Gamma-aminobutyric acid receptor subunit alpha-1 (Homo sapiens) (UniProt P14867); test: (§1) Selectivity interaction (GPCR panel (PDSP screen)) EUB0001072a GABRA1; settings: at 10 µM
T5 sequence (whole entry): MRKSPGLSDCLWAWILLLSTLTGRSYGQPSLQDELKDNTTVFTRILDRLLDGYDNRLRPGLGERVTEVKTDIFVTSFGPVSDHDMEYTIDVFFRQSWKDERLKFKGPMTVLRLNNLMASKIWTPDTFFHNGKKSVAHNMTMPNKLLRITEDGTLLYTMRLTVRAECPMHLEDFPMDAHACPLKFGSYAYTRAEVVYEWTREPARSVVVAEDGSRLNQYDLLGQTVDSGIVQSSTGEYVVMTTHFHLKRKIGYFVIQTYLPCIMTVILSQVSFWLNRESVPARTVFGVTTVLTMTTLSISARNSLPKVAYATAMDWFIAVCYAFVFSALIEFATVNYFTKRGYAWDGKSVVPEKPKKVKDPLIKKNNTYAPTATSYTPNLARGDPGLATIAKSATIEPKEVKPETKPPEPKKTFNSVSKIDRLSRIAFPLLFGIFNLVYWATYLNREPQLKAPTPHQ

[12] = molecular target: T6, Muscarinic acetylcholine receptor M1 (Homo sapiens) (UniProt P11229); test: Selectivity interaction (GPCR panel (PDSP screen)) EUB0001072a CHRM1; settings: at 10 µM
T6 sequence (whole entry): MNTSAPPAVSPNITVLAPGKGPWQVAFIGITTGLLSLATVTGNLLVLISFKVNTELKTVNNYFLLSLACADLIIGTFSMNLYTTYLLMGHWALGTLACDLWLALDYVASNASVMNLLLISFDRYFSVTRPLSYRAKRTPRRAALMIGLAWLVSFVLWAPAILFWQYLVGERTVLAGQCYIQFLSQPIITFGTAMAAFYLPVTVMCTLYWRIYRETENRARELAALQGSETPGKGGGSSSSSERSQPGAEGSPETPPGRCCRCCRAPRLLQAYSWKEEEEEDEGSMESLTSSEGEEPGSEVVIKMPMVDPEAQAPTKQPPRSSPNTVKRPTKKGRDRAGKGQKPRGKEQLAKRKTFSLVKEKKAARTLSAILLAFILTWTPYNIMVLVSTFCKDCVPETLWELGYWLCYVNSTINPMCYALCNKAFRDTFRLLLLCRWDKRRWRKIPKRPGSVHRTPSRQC

[13] = molecular target: Muscarinic acetylcholine receptor M4 (Homo sapiens) (UniProt P08173); test: Selectivity interaction (GPCR panel (PDSP screen)) EUB0001072a CHRM4; settings: at 10 µM
Muscarinic acetylcholine receptor M4 (Homo sapiens), sequence (P08173 whole entry): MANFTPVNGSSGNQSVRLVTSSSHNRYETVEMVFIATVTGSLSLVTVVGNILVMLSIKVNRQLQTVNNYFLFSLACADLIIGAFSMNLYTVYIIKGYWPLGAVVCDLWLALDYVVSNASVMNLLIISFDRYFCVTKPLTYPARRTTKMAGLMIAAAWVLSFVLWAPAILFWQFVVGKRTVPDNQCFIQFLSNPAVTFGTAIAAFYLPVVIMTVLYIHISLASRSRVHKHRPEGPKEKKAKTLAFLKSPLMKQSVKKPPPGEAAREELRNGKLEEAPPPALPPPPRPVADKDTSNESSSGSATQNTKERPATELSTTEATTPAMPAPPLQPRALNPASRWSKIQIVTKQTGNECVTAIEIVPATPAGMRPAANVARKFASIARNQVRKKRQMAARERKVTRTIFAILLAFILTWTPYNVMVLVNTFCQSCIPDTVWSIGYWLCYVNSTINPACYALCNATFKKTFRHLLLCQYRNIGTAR

[14] = molecular target: 5-hydroxytryptamine receptor 2A (Homo sapiens, UniProt P28223); test: Selectivity interaction (GPCR panel (PDSP screen)) EUB0001072a HTR2A; settings: at 10 µM
5-hydroxytryptamine receptor 2A, sequence (P28223 whole entry): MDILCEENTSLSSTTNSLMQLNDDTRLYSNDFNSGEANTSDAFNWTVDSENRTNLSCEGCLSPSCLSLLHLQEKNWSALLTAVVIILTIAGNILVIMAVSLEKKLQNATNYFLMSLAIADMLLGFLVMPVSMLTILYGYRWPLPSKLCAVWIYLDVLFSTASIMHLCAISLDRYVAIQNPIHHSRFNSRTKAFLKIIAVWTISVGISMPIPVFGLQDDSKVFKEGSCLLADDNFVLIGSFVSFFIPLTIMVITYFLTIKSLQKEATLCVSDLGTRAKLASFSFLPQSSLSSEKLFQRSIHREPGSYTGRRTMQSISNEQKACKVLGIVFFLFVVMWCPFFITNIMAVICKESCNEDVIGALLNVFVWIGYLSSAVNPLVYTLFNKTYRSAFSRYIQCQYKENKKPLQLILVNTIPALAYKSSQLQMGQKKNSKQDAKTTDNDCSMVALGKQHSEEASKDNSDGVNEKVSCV

[15] = molecular target: Muscarinic acetylcholine receptor M5 (Homo sapiens) (UniProt P08912); test: Selectivity interaction (GPCR panel (PDSP screen)) EUB0001072a CHRM5; settings: at 10 µM
[16] = molecular target: D(1B) dopamine receptor (Homo sapiens) (UniProt P21918); test: Selectivity interaction (GPCR panel (PDSP screen)) EUB0001072a DRD5; settings: at 10 µM
[17] = molecular target: 5-hydroxytryptamine receptor 1B (Homo sapiens) (UniProt P28222); test: Selectivity interaction (GPCR panel (PDSP screen)) EUB0001072a HTR1B; settings: at 10 µM
Histamine H3 receptor = Histamine H3 receptor (Homo sapiens, UniProt Q9Y5N1); test: Selectivity interaction (GPCR panel (PDSP screen)) EUB0001072a HRH3; settings: at 10 µM
Histamine H3 receptor, sequence (Q9Y5N1 whole entry): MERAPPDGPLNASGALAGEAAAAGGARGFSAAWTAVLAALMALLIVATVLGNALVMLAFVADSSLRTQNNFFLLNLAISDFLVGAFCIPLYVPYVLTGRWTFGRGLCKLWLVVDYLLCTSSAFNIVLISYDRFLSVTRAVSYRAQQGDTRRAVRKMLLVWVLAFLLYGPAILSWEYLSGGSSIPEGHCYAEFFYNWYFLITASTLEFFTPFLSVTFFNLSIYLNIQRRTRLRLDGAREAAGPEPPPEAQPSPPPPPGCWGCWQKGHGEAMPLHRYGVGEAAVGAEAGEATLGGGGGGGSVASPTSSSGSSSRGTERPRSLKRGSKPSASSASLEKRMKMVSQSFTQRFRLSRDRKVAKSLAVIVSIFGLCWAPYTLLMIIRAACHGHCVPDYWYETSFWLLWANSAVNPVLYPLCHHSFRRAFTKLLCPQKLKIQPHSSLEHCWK

[18] = molecular target: 5-hydroxytryptamine receptor 1E (Homo sapiens) (UniProt P28566); test: Selectivity interaction (GPCR panel (PDSP screen)) EUB0001072a HTR1E; settings: at 10 µM
[19] = molecular target: 5-hydroxytryptamine receptor 2B (Homo sapiens, UniProt P41595); test: Selectivity interaction (GPCR panel (PDSP screen)) EUB0001072a HTR2B; settings: at 10 µM
[20] = molecular target: Muscarinic acetylcholine receptor M3 (Homo sapiens, UniProt P20309); test: Selectivity interaction (GPCR panel (PDSP screen)) EUB0001072a CHRM3; settings: at 10 µM
[21] = molecular target: T5, Gamma-aminobutyric acid receptor subunit alpha-1 (Homo sapiens); test: as §1; settings: at 10 µM; remark: listed apart in the source
[22] = molecular target: Sodium-dependent dopamine transporter (Homo sapiens, UniProt Q01959); test: Selectivity interaction (GPCR panel (PDSP screen)) EUB0001072a SLC6A3; settings: at 10 µM
[23] = molecular target: 5-hydroxytryptamine receptor 1D (Homo sapiens) (UniProt P28221); test: Selectivity interaction (GPCR panel (PDSP screen)) EUB0001072a HTR1D; settings: at 10 µM
5-hydroxytryptamine receptor 1D (Homo sapiens), sequence (P28221 whole entry): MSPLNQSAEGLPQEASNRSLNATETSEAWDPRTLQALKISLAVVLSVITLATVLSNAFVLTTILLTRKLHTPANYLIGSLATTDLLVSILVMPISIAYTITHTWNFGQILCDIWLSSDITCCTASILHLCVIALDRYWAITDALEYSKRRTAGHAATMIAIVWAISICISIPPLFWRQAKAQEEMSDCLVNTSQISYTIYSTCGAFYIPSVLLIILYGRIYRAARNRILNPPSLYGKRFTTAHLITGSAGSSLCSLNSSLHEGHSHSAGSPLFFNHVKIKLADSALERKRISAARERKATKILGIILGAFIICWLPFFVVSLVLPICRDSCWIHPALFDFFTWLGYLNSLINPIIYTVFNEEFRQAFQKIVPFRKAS

[24] = molecular target: 5-hydroxytryptamine receptor 5A (Homo sapiens) (UniProt P47898); test: Selectivity interaction (GPCR panel (PDSP screen)) EUB0001072a HTR5A; settings: at 10 µM
5-hydroxytryptamine receptor 5A (Homo sapiens), sequence (P47898 whole entry): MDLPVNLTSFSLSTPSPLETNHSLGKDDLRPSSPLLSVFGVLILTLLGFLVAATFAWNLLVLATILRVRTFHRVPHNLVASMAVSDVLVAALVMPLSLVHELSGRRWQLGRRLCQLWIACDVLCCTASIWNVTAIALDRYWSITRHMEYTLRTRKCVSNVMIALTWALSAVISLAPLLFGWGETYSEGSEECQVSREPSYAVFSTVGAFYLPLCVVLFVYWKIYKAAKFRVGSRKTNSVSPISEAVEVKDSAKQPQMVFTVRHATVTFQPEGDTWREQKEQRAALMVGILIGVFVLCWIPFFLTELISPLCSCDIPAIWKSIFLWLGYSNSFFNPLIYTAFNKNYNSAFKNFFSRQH

## CNc1ncc2cc(-c3ccc(-c4ncccc4F)cc3Cl)c(=O)n(C[C@H]3OC[C@H](N)CO3)c2n1
[1]
  % of residual activity: 10%
[2]
  % of residual activity: 9%
[3]
  % of residual activity: 8%

## CN(C(=O)c1ccccc1)c1cc(N(C)c2ccc3c(c2)CCc2ccc(C(=O)NCCN4CCOCC4)cc2C3=O)ccc1F
[4]
  % of control: 47%
[5]
  % of control: 45%
[6]
  % of control: 50%

## CNC(=N)NCCC[C@H](NC(=O)[C@H](CC(C)C)NC(=O)NNC(=O)[C@H](Cc1ccccc1)NC(=O)[C@H](CO)NC(=O)[C@H](CC(N)=O)NC(=O)[C@@H](Cc1cccnc1)NC(=O)[C@H](N)Cc1ccc(O)cc1)C(=O)NCC(N)=O (H-[dY][d3Pal]NSF[azaGly]L[Arg(Me)]G-NH2)
[7]
  % of inhibition: 40.7%
[8]
  % of inhibition: 14.5%
[9]
  % of inhibition: 15.6%
[10]
  % of inhibition: 30.9%
[11]
  % of inhibition: 15.5%
[12]
  % of inhibition: 15.1%
[13]
  % of inhibition: 18.5%
[14]
  % of inhibition: 16.9%
[15]
  % of inhibition: 12.3%
[16]
  % of inhibition: 29.2%
[17]
  % of inhibition: 31%
Histamine H3 receptor
  % of inhibition: 12.5%
[18]
  % of inhibition: 27.9%
[19]
  % of inhibition: 11.3%
[20]
  % of inhibition: 24.7%
[21]
  % of inhibition: 12.3%
[22]
  % of inhibition: 10.4%
[23]
  % of inhibition: 12.4%
[24]
  % of inhibition: 16.3%
